The values that follow come from PMC11860126, “X-Ray Irradiation Induces Oxidative Stress and Upregulates Intestinal Nrf2-Mrp2 Pathway, Leading to Decreased Intestinal Absorption of Valsartan” (Pharmaceutics, 2025).

Where two headings read alike, the source gives them in different places.

On the set-up of data set [1]: method as in PMID 28438473, PMID 22204725, PMID 27749456. The conditions noted are these: clinical studies; cited from earlier work.
The conditions of data set [2]: cited from earlier work.
Data set [3] in a line: VAL bile secretion assay in bile duct cannulated rats. Format: in vivo, Sprague Dawley (SD) rats. The conditions noted are these: 10 mg/kg by gavage. From the text:
For the VAL bile secretion assay, six rats in each group, A and B, underwent bile duct cannulation prior to administration. After anesthesia, the abdominal cavity of the rats was opened, followed by separation and ligation of the distal end of the common bile duct. A small opening was made at the front end of the ligation to insert a catheter, which was then ligated and fixed before suturing the abdominal cavity. Bile was collected through a catheter. The rats were maintained under anesthesia with intraperitoneal injection of normal saline and glucose to ensure stable vital signs. Following surgery, valsartan (10 mg/kg) was administered via gavage, and bile samples were collected at different time points post-administration. The collected bile samples were mixed with 50% methanol–water (ratio 1:9), centrifuged to obtain the supernatant for analysis.

The nature of data set [4]: Ex vivo inverted intestinal sac absorption study. Format: in vitro ADME, Sprague Dawley (SD) rats. Particulars: for concentration of valsartan in the intestinal sac at the final time point: KRB buffer 37 °C containing 10 mM VAL, n = 6. The protocol:
Six rats in groups A and B were anesthetized with isoflurane, followed by the opening of the abdominal cavity to separate a 10 cm segment of the jejunum. The distal end of the jejunal segment was ligated in Krebs–Ringer Solution (KRB), and the resulting intestinal sac was turned inside out from the proximal end to form an inverted intestinal sac. Subsequently, 1 mL of KRB buffer at 37 °C was added to the inverted intestinal sac, which was then equilibrated in oxygen-saturated KRB buffer (37 °C) for 5 min. The flipped intestinal sac was transferred to oxygen-saturated KRB buffer (37 °C) containing 10 mM VAL, initiating the timing process. At different time points, 50 μL of solution from the flipped intestinal sac was aspirated and supplemented with an equal volume (50 μL) of blank KRB buffer.

A short description of data set [5]: VAL urinary and fecal excretion assay (metabolic cages). Particulars: rats, 10 mg/kg by gavage.
Description: Male Sprague Dawley (SD) rats (weight 200 ± 20 g) were purchased from Beijing Vital River Laboratory Animal Co., LTD. […] The rats were fed a maintenance diet and had free access to water. All rats were adaptively fed for three days before the experiment and randomly divided into a control group (A) and irradiation group (B). There were 6 rats in group A and B in each study. […] The samples collected were processed and then stored at −80 °C until analysis.
For the VAL urinary and fecal excretion assay, six rats in each group, A and B, were randomly assigned to metabolic cages and administered valsartan (10 mg/kg) via gavage. […] The resulting supernatant was collected as the analytical samples.
The excretion of valsartan was calculated by the concentration and sample volume (or weight), and the fractional excretion of valsartan and the cumulative excretion fraction of valsartan in each time period were obtained through comparison with the corresponding dose administered to the rat.
On the set-up of data set [6]: method as in PMID 28507434. The conditions noted are these: cited from earlier work.
Data set [7] in a line: In vivo pharmacokinetics of valsartan in rat plasma, with or without abdominal X-ray irradiation. More on the design: species or system Sprague Dawley (SD) rats. The conditions noted are these: for AUC(0-inf) / Cmax / AUC(0-t) / MRT last / Tmax / half-life: male, Sprague-Dawley, rat, plasma, po, 10 mg/kg; for AUC(0-t): read-out: AUC0–24h; for MRT last: read-out: MRT0–24h; for half-life / t1/2: valsartan 10 mg/kg by gavage, Mean ± SD, n = 6. The protocol: Valsartan was administered by gavage (10 mg/kg) after forming a homogeneous suspension (2 mg/mL) with 1% CMC-Na by grinding and stirring. Before and after administration (0.083, 0.25, 0.5, 1, 2, 4, 6, 8, 12, and 24 h), the rats in group A (n = 6) and group B (n = 6) were anesthetized with isoflurane. Blood samples were collected by the orbital blood sampling method, and whole blood was collected by blood collection tubes coated with heparin sodium. Plasma samples were obtained by centrifugation at 16,260× g for 10 min. Quantitative analysis of LC-MS/MS results was performed using Analyst 1.6.3 program. The pharmacokinetic parameters were calculated using the WinNonlin 8.3 program. SPSS Statistic 20.0 software was used for statistical analysis. One-way ANOVA was used for comparison among multiple groups, and p < 0.05 was considered statistically significant. GraphPad Prism 8.0.2 software was used for generating figures.

The mark [8] stands for this setting: 10 mg/kg by gavage, Control group.
The mark [9] stands for this setting: IR-5 Gy vs control, 10 mg/kg by gavage, p < 0.05.
The mark [10] stands for this setting: IR-5 Gy (abdominal X-ray 24 h before).

For bevacizumab, the “incidence of hypertension associated with treatment” value in data set [1] is 26% to 55.
Regarding `CCCCC(=O)N(Cc1ccc(-c2ccccc2-c2nnn[nH]2)cc1)[C@H](C(=O)O)C(C)C` [valsartan, Valsartan], the “fraction absorbed into the liver, secreted into the bile and passed into the feces along with unabsorbed valsartan” value in data set [2] was over 80%. Moreover, the “cumulative fractional bile excretion” value is 10.83 % of the dose in data set [3] (IR group, 15 h); 11.52 % of the dose in data set [3] (IR group, 18 h); 12.67 % of the dose in data set [3] (IR group, 24 h); 22.89 % of the dose in data set [3] (control group, 15 h); 26.24 % of the dose in data set [3] (control group, 18 h); 31.26 % of the dose in data set [3] (control group, 24 h). Moreover, the “concentration of valsartan in the intestinal sac at the final time point” value in data set [4] (IR group) is listed as 127 ± 32.94 ng/mL; in data set [4] (control group), 205.6 ± 51.72 ng/mL. In addition, in data set [4] (final time point), the “reduction of valsartan concentration in the intestinal sac, IR vs control” value is 38%. In addition, the “amount excreted in the urine” value in data set [5] (Figure 2D) was “very small amount”. The “cumulative excretion in feces” value in data set [5] (group not stated) is 83%. For the same compound, in data set [6], the bioavailability is given as 23%. Also, the CL in data set [7] (setting [8]) came to 20 ± 5.87 mL/min/kg; in data set [7] (10 mg/kg by gavage, IR-5 Gy), 35.33 ± 18.5 mL/min/kg. Besides, the Vd is 6.254 ± 2.349 L/kg in data set [7] (setting [8]) and 14.668 ± 9.456 L/kg in data set [7] (10 mg/kg by gavage, IR-5 Gy). Moreover, in data set [7] (IR-5 Gy vs control, 10 mg/kg by gavage), the “prolongation of plasma half-life (t1/2) in the IR group” value came to 41%. Further, in data set [7] (setting [9]), the “decrease of AUC0–24h in the IR group” value amounted to 37%. Also, in data set [7] (setting [9]), the “decrease of Cmax in the IR group” value was found to be 52%. Further, the AUC(0-inf) in data set [7] (setting [8]) worked out at 8810 ± 2010 ng·h/mL; in data set [7] (10 mg/kg by gavage, IR-5 Gy), 5470 ± 1790 ng·h/mL. Besides, the Cmax was 4430 ± 1260 ng/mL in data set [7] (setting [8]) and 2130 ± 878 ng/mL in data set [7] (10 mg/kg by gavage, IR-5 Gy). For the same compound, the AUC(0-t) in data set [7] (setting [8]) came to 8460 ± 1840 ng·h/mL; in data set [7] (10 mg/kg by gavage, IR-5 Gy), 5270 ± 1830 ng·h/mL. For the same compound, the MRT last in data set [7] (setting [8]) came out at 3.84 ± 0.724 h; in data set [7] (10 mg/kg by gavage, IR-5 Gy), 4.52 ± 1.63 h. For the same compound, the Tmax is 0.25 h in data set [7] (10 mg/kg by gavage, Control group, read-out: Tmax); about 0.25 h in data set [7] (10 mg/kg by gavage, Figure 1, read-out: time of peak plasma concentration); 0.222 ± 0.068 h in data set [7] (10 mg/kg by gavage, IR-5 Gy, read-out: Tmax). Moreover, the figures for the half-life in data set [7] (Control group) and in data set [7] (setting [10]) were 3.57 h and 5.03 h, respectively. Besides, the t1/2 was found to be 3.568 ± 0.411 h in data set [7] (Control group) and 5.032 ± 2.656 h in data set [7] (setting [10]).

In general, bioavailability refers to dose-corrected exposure relative to a reference, in per cent. As usually defined, the AUC(0-inf) is the area under the concentration-time curve extrapolated to infinity. One may read the Cmax as the maximum level reached in the sampled fluid or tissue. In general, half-life refers to the time in which the quantity being followed falls by half.
